# According to ChEMBL document CHEMBL1201862, “PubChem BioAssay data set” (2004):
#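 Assay format: 96-well plates, 48-hour exposure. GI50 is the concentration that inhibits growth by half.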 Activity calls are given as the source filed them. No stated cut-off is given here; in the data, active = GI50 up to about 1.1 µM and inactive = higher.
# Columns and labels:
# Experiment in all cases: growth of human tumour cells (NCI), 48 h
# [1] = system: Hs-578T
# [2] = system: HCT-116
# [3] = system: NCI-H23
# [4] = system: 786-0
# [5] = system: HOP-92
# [6] = system: SK-OV-3
# [7] = system: OVCAR-5
# [8] = system: CAKI-1
# [9] = system: OVCAR-3
# [10] = system: HOP-62
# [11] = system: SF-268
# [12] = system: SN12C
# [13] = system: HCT-15
# [14] = system: UACC-62
# [15] = system: TK-10
# [16] = system: DU-145
# [17] = system: NCI/ADR-RES
# [18] = system: MCF7
# [19] = system: SNB-75
# [20] = system: M14
# [21] = system: BT-549
# [22] = system: IGROV-1
# [23] = system: NCI-H226
# [24] = system: U-251
# [25] = system: SNB-19
# [26] = system: K562
# [27] = system: COLO 205
# [28] = system: SR
# [29] = system: MDA-MB-435
# [30] = system: RXF 393
# [31] = system: KM12
# [32] = system: NCI-H522
# [33] = system: RPMI-8226
# [34] = system: Malme-3M
# [35] = system: SF-539
# [36] = system: EKVX
# [37] = system: MDA-N
# [38] = system: OVCAR-8
# [39] = system: CCRF-CEM
# [40] = system: OVCAR-4
# [41] = system: LOX IMVI
# [42] = system: SF-295
# [43] = system: HT-29
# [44] = system: A498
# [45] = system: MDA-MB-231
# [46] = system: ACHN
# [47] = system: HL-60
# [48] = system: UACC-257
# [49] = system: T47D
# [50] = system: SW-620
# [51] = system: UO-31
# [52] = system: HCC 2998
# [53] = system: MOLT-4
# [54] = system: PC-3
# [55] = system: SK-MEL-28
# [56] = system: NCI-H460
# [57] = system: A549
# [58] = system: SK-MEL-5
# [59] = system: SK-MEL-2
structure (smiles),measurement,setting,value
CC(C)c1nc(Cl)c(Cl)c(Cl)n1,GI50,[1],2.76 µM (inactive)
same,GI50,[2],1.33 µM (inactive)
same,GI50,[3],4.06 µM (inactive)
same,GI50,[4],2.99 µM (inactive)
same,GI50,[5],3.24 µM (inactive)
same,GI50,[6],17.7 µM (inactive)
same,GI50,[7],5.77 µM (inactive)
same,GI50,[8],2.09 µM (inactive)
same,GI50,[9],1.99 µM (inactive)
same,GI50,[10],12.6 µM (inactive)
same,GI50,[11],1.91 µM (inactive)
same,GI50,[12],4.24 µM (inactive)
same,GI50,[13],0.695 µM
same,GI50,[14],8.41 µM (inactive)
same,GI50,[15],11.4 µM (inactive)
same,GI50,[16],7.69 µM (inactive)
same,GI50,[17],5.78 µM (inactive)
same,GI50,[18],1.75 µM (inactive)
same,GI50,[19],11.2 µM (inactive)
same,GI50,[20],5.51 µM (inactive)
same,GI50,[21],0.621 µM (active)
same,GI50,[22],3.08 µM (inactive)
same,GI50,[23],17.7 µM (inactive)
same,GI50,[24],3.42 µM (inactive)
same,GI50,[25],18.6 µM (inactive)
same,GI50,[26],0.286 µM (active)
same,GI50,[27],2.71 µM (inactive)
same,GI50,[28],0.431 µM (active)
same,GI50,[29],4.2 µM (inactive)
same,GI50,[30],2.05 µM (inactive)
same,GI50,[31],8.39 µM (inactive)
same,GI50,[32],0.759 µM (active)
same,GI50,[33],1.31 µM (inactive)
same,GI50,[34],0.608 µM (active)
same,GI50,[35],9.2 µM (inactive)
same,GI50,[36],11.7 µM (inactive)
same,GI50,[37],4.35 µM (inactive)
same,GI50,[38],2.1 µM (inactive)
same,GI50,[39],1.07 µM (active)
same,GI50,[40],15.5 µM (inactive)
same,GI50,[41],0.246 µM (active)
same,GI50,[42],14.5 µM (inactive)
same,GI50,[43],2.1 µM (inactive)
same,GI50,[44],23.8 µM (inactive)
same,GI50,[45],8.85 µM (inactive)
same,GI50,[46],0.769 µM (active)
same,GI50,[47],1.71 µM (inactive)
same,GI50,[48],4.29 µM (inactive)
same,GI50,[49],4.14 µM (inactive)
same,GI50,[50],1.7 µM (inactive)
same,GI50,[51],1.19 µM (inactive)
same,GI50,[52],3.49 µM (inactive)
same,GI50,[53],1.8 µM (inactive)
same,GI50,[54],4.31 µM (inactive)
same,GI50,[55],14.2 µM (inactive)
same,GI50,[56],12.6 µM (inactive)
same,GI50,[57],2.58 µM (inactive)
same,GI50,[58],16.2 µM (inactive)
C=C(Br)C(C)(Br)CCC(Br)C(C)(C)Cl (stereo not given),GI50,[1],26.4 µM (inactive)
same,GI50,[2],11.7 µM (inactive)
same,GI50,[3],16.3 µM (inactive)
same,GI50,[4],17.8 µM (inactive)
same,GI50,[5],14.6 µM (inactive)
same,GI50,[6],27.8 µM (inactive)
same,GI50,[7],18.8 µM (inactive)
same,GI50,[9],18.6 µM (inactive)
same,GI50,[10],23 µM (inactive)
same,GI50,[11],17.9 µM (inactive)
same,GI50,[12],20.2 µM (inactive)
same,GI50,[13],13 µM
same,GI50,[14],20.4 µM (inactive)
same,GI50,[15],18.2 µM (inactive)
same,GI50,[16],21.5 µM (inactive)
same,GI50,[17],23.7 µM (inactive)
same,GI50,[18],14.5 µM (inactive)
same,GI50,[19],16.5 µM (inactive)
same,GI50,[59],25.7 µM (inactive)
same,GI50,[20],17.3 µM (inactive)
same,GI50,[21],23.8 µM (inactive)
same,GI50,[22],13.6 µM (inactive)
same,GI50,[23],31 µM (inactive)
same,GI50,[24],16.2 µM (inactive)
same,GI50,[25],18.8 µM (inactive)
same,GI50,[26],10.2 µM (inactive)
same,GI50,[27],18.5 µM (inactive)
same,GI50,[28],3.5 µM (inactive)
same,GI50,[29],19.4 µM (inactive)
same,GI50,[30],20 µM (inactive)
same,GI50,[31],16.6 µM (inactive)
same,GI50,[32],6.62 µM (inactive)
same,GI50,[33],15.4 µM (inactive)
same,GI50,[34],20.1 µM (inactive)
same,GI50,[35],16.8 µM (inactive)
same,GI50,[36],22.8 µM (inactive)
same,GI50,[37],19.2 µM (inactive)
same,GI50,[38],17.8 µM (inactive)
same,GI50,[39],2.96 µM (inactive)
same,GI50,[40],18.9 µM (inactive)
same,GI50,[42],16.9 µM (inactive)
same,GI50,[43],17.9 µM (inactive)
same,GI50,[44],20.8 µM (inactive)
same,GI50,[45],17.8 µM (inactive)
same,GI50,[46],19.1 µM (inactive)
same,GI50,[47],2.81 µM (inactive)
same,GI50,[48],19.1 µM (inactive)
same,GI50,[49],20.5 µM (inactive)
same,GI50,[50],13 µM (inactive)
same,GI50,[51],17.7 µM (inactive)
same,GI50,[52],17.4 µM (inactive)
same,GI50,[53],2.54 µM (inactive)
same,GI50,[54],20.4 µM (inactive)
same,GI50,[55],16.3 µM (inactive)
same,GI50,[56],18.3 µM (inactive)
same,GI50,[57],> 54.7 µM (inactive)
same,GI50,[58],17.2 µM (inactive)
